Experimental data reported in patent US8653091B2, “Pyrid-2yl fused heterocyclic compounds, and compositions and uses thereof” (Evotec AG, priority 2007, dated 2014).

Experiments:
P2X3 = P2X3 (Homo sapiens (Human), UniProt P56373); assay: Calcium uptake assay (P2X antagonist assay), P2X3; assay type: cell-based; conditions: inhibition of agonist-induced calcium influx
Source text: (§1) Human P2X3 (Accession no. NM_002559), P2X2 (Accession no. NM_170682) and Rat P2X3 (Accession no. NM_031075) and P2X2 (Accession no. NM_053656) are cloned into a mammalian expression vector (e.g., pcDNA5/TO or pcDNA3 Invitrogen). The human P2X2/3 chimera clone is created as described by Neelands et al, and then cloned into an expression vector as above. Receptors are expressed in cells (e.g., HEK293 or 1321N1 (obtained from the ECACC)) via transient transfection using standard lipid mediated transfection, or by creation of stable transfectants for each receptor. For expression of the P2X2/3 heteromeric receptor, the P2X3 expression vector is stably transfected into a cell line already stably expressing P2X2. P2X2/3 heteromer function is isolated using pharmacological methods. Cell lines are maintained in DMEM+5% Glutamax, the appropriate level of selective antibiotic, and 10% heat inactivated FBS.
(§2) Functional activity of compounds at the P2X receptor is determined by measuring their ability to inhibit agonist-induced calcium influx. Compounds are tested for antagonist activity against the P2X2/3 chimera, the P2X3 homomer, or the P2X2/3 heteromer. At the start of each screening day, the agonist EC50 is determined. Compound % inhibition or IC50s are subsequently determined using a pre-determined agonist concentration (EC50-90 depending on cell line) as a stimulus. The agonists used are αβMeATP, ATP, or other ATP analogs. Compounds may be tested at concentrations ranging from 1 μM to 10 μM.
(§3) To test for antagonist activity, cells expressing the appropriate receptor are seeded onto 96 or 384 well plates 18-24 hours prior to assay. On the day of the assay, cells are loaded with calcium-sensitive fluorescent dye (e.g., Fluo-4 no wash reagent-Invitrogen cat#F36206, or the BD™ PBX Calcium Assay Kit—BD cat#640175) in Hank's Buffered Salt Solution (HESS) with up to 10 mM supplemental CaCl2. Plates are incubated at 37° C. and then equilibrated at room temperature. Antagonism of agonist-induced calcium influx is measured using a fluorescent imaging plate reader (e.g. FLIPR^TETRA, Molecular Devices, Sunnyvale, Calif.). The assay comprises two stages: a pre-treatment phase followed by a treatment phase. Compounds may be tested as follows: For the pre-treatment phase, 50 μL of 3× concentration of test compound in HBSS is added to cells containing 100 μL of dye loading media to achieve a final concentration of 1× test compound. For the treatment phase, at a set interval after pre-treatment (1-30 minutes), 50 μL of 1× test compound plus […] solution is added, resulting in a final concentration of 1× compound and 1× agonist. Fluorescence is measured at 0.1-3 second intervals—with an excitation wavelength of 494 nm and an emission wavelength of 515 nm. Responses are measured as (peak fluorescence after agonist addition) minus (baseline fluorescence prior to treatment). Percent inhibition is calculated as follows: […]
(§4) IC50 values are determined by analyzing dose response data in a 4 parameter logistic fit using GraphPad Prizm.

P2X2/3 = P2X2/3 (Homo sapiens (Human), UniProt P56373+Q9UBL9); assay: Calcium uptake assay (P2X antagonist assay), P2X2/3; assay type: cell-based; conditions: inhibition of agonist-induced calcium influx
Chain of P2X2/3 (Q9UBL9 whole entry): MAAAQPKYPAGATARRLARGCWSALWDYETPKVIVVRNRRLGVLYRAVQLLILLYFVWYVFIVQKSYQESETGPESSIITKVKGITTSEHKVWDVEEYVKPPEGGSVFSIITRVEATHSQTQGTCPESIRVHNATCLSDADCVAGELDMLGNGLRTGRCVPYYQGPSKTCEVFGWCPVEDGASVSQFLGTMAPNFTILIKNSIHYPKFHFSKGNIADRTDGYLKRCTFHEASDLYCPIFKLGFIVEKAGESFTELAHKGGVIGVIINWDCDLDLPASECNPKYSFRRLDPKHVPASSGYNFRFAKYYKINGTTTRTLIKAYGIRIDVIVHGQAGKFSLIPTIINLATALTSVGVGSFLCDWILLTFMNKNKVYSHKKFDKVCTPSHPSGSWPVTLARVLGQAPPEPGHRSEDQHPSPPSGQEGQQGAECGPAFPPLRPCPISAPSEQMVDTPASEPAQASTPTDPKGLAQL
Chain of P2X2/3 (P56373 whole entry): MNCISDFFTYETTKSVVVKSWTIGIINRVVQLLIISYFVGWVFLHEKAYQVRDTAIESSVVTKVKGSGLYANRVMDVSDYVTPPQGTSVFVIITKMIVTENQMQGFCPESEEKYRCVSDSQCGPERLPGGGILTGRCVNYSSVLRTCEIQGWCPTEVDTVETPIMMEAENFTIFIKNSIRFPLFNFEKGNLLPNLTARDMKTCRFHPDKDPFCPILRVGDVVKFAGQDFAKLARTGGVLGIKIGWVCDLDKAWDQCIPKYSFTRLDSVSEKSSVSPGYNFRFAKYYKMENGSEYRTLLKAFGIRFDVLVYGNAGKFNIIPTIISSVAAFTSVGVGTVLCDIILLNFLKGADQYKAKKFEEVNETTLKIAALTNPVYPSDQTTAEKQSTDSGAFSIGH
Source text: as §1, §2, §3, §4

Chain of P2X3 (P56373 whole entry): as above

Row | SMILES | IC50 (P2X3) [nM] | IC50 (P2X2/3) [nM]
1 | Cc1ccc(N2CCc3ncnc(N[C@H](CCO)c4ccc(C(F)(F)F)nc4)c3C2)nc1 [Compound 63, (R)-3-[6-(5-Methyl-pyridin-2-yl)-5,6,7,8-tetrahydro-pyrido[4,3-d]pyrimidin-4-ylamino]-3-(6-trifluoromethyl-pyridin-3-yl)-propan-1-ol] | 24 | 335
2 | Cc1ccc(N2CCc3ncnc(N[C@H](CO)c4ccc(C(F)(F)F)cc4)c3C2)nc1 [Compound 55, (S)-2-(6-(5-Methylpyridin-2-yl)-5,6,7,8-tetrahydropyrido[4,3-d]pyrimidin-4-ylamino)-2-(4-(trifluoromethyl)phenyl)ethanol] | 158 | 3970
3 | COc1ccc([C@@H](CO)Nc2ncnc3c2CN(c2ccc(Cl)cn2)CC3)cn1 [Compound 59, (S)-2-[6-(5-Chloro-pyridin-2-yl)-5,6,7,8-tetrahydro-pyrido[4,3-d]pyrimidin-4-ylamino]-2-(6-methoxy-pyridin-3-yl)-ethanol] | 90 | 276
4 | Cc1ccc(N2CCc3ncnc(N[C@H](CCO)c4ccc(C)nc4)c3C2)nc1 [Compound 61, (R)-3-(6-Methyl-pyridin-3-yl)-3-[6-(5-methyl-pyridin-2-yl)-5,6,7,8-tetrahydro-pyrido[4,3-d]pyrimidin-4-ylamino]-propan-1-ol] | 28 | 133
5 | COc1ccc([C@@H](CCO)Nc2ncnc3c2CN(c2ccc(C)cn2)CC3)cn1 [Compound 58, (R)-3-(6-Methoxy-pyridin-3-yl)-3-[6-(5-methyl-pyridin-2-yl)-5,6,7,8-tetrahydro-pyrido[4,3-d]pyrimidin-4-ylamino]-propan-1-ol] | 29 | 83
6 | Cc1ccc([C@@H](C)Nc2ncnc3c2CN(c2ccc(C)cn2)CC3)cc1 [Compound 34] | 47 | 1460
7 | Cc1ccc(N2CCc3ncnc(N[C@H](C)c4ccc(C(F)(F)F)nc4)c3C2)nc1 [Compound 50, (R)-6-(5-Methylpyridin-2-yl)-N-(1-(6-(trifluoromethyl)pyridin-3-yl)ethyl)-5,6,7,8-tetrahydropyrido[4,3-d]pyrimidin-4-amine] | 15 | 279
8 | Cc1ccc(N2CCc3ncnc(NC(C)c4ccccc4F)c3C2)nc1 (stereo not drawn) [Compound 12, [1-(2-Fluoro-phenyl)-ethyl]-[6-(5-methyl-pyridin-2-yl)-5,6,7,8-tetrahydro-pyrido[4,3-d]pyrimidin-4-yl]-amine] | 88 | 4620

More lines, in order of falling IC50 (P2X3), values ahead:

Row | IC50 (P2X3) [nM] | IC50 (P2X2/3) [nM] | SMILES
9 | 143 | 3880 | Cc1ccc(N2CCc3ncnc(NC(CCO)c4ccccc4)c3C2)nc1 (stereo not drawn) [Compound 32, 3-[6-(5-Methyl-pyridin-2-yl)-5,6,7,8-tetrahydro-pyrido[4,3-d]pyrimidin-4-ylamino]-3-phenyl-propan-1-ol]
10 | 128 | 4250 | Cc1ccc(N2CCc3ncnc(NC(C)c4ccc(S(C)(=O)=O)cc4)c3C2)nc1 (stereo not drawn) [Compound 5, [1-(4-Methanesulfonyl-phenyl)-ethyl]-[6-(5-methyl-pyridin-2-yl)-5,6,7,8-tetrahydro-pyrido[4,3-d]pyrimidin-4-yl]-amine]
11 | 103 | 318 | COc1ccc([C@@H](CCO)Nc2ncnc3c2CN(c2ccc(Cl)cn2)CC3)cn1 [Compound 57, (R)-3-[6-(5-Chloro-pyridin-2-yl)-5,6,7,8-tetrahydro-pyrido[4,3-d]pyrimidin-4-ylamino]-3-(6-methoxy-pyridin-3-yl)-propan-1-ol]
12 | 80 | 1060 | COc1ccc(C(C)Nc2ncnc3c2CN(c2ccc(C)cn2)CC3)cc1F (stereo not drawn) [Compound 21, [1-(3-Fluoro-4-methoxy-phenyl)-ethyl]-[6-(5-methyl-pyridin-2-yl)-5,6,7,8-tetrahydro-pyrido[4,3-d]pyrimidin-4-yl]-amine]
13 | 73 | 2540 | Cc1ccc(N2CCc3ncnc(N[C@H](C)c4ccccc4)c3C2)nc1 [Compound 8, [6-(5-Methyl-pyridin-2-yl)-5,6,7,8-tetrahydro-pyrido[4,3-d]pyrimidin-4-yl]-((R)-1-phenyl-ethyl)-amine]
14 | 67 | 522 | Cc1ccc(N2CCc3ncnc(NC(CCO)c4ccc(C(F)(F)F)nc4)c3C2)nc1 (stereo not drawn) [Compound 56, 3-[6-(5-Methyl-pyridin-2-yl)-5,6,7,8-tetrahydro-pyrido[4,3-d]pyrimidin-4-ylamino]-3-(6-trifluoromethyl-pyridin-3-yl)-propan-1-ol]
15 | 52 | 803 | Cc1ccc(N2CCc3ncnc(NC(C)c4cc(F)cc(F)c4)c3C2)nc1 (stereo not drawn) [Compound 17, [1-(3,5-Difluoro-phenyl)-ethyl]-[6-(5-methyl-pyridin-2-yl)-5,6,7,8-tetrahydro-pyrido[4,3-d]pyrimidin-4-yl]-amine]
16 | 50 | 3070 | Cc1ccc(N2CCc3ncnc(NC(C)c4ccc(F)cc4F)c3C2)nc1 (stereo not drawn) [Compound 18, [1-(2,4-Difluoro-phenyl)-ethyl]-[6-(5-methyl-pyridin-2-yl)-5,6,7,8-tetrahydro-pyrido[4,3-d]pyrimidin-4-yl]-amine]
17 | 21 | 705 | COc1cccc([C@@H](C)Nc2ncnc3c2CN(c2ccc(C)cn2)CC3)c1 [Compound 47, [(R)-1-(3-Methoxy-phenyl)-ethyl]-[6-(5-methyl-pyridin-2-yl)-5,6,7,8-tetrahydro-pyrido[4,3-d]pyrimidin-4-yl]-amine]
18 | 19 | 1220 | Cc1ccc(N2CCc3ncnc(N[C@H](C)c4ccc(F)cc4)c3C2)nc1 [Compound 49, [(R)-1-(4-Fluoro-phenyl)-ethyl]-[6-(5-methyl-pyridin-2-yl)-5,6,7,8-tetrahydro-pyrido[4,3-d]pyrimidin-4-yl]-amine]
